Test results published in patent US8507464B2, “Phosphoramidate alkylator prodrugs” (Threshold Pharmaceuticals, Inc., priority 2005, dated 2013).
Where two headings read alike, the source gives them in different places.

Key:
human H460 cells = experiment: Clonogenic survival assay, hypoxia vs normoxia (Table 1A); conditions: for IC90: Homo sapiens
[1] = In vivo plasma or tumor pharmacokinetics of Compound 25 (Table 4); design: species or system CD-1 mice (nude mice where noted)
UV41 = experiment: Clonogenic survival - DNA mutant repair cells; conditions: Cricetulus griseus
[2] = 50 mg/kg i.v., 30% PEG/70% Saline, CD-1 mice
[3] = CD-1, mouse, plasma, ip, 25 mg/kg, 25 mg/kg i.p., 10% PEG, CD-1 mice
[4] = CD-1, mouse, plasma, ip, 50 mg/kg, 50 mg/kg i.p., Saline, CD-1 mice
[5] = CD-1, mouse, plasma, iv, 50 mg/kg, 50 mg/kg i.v., 30% PEG/70% Saline, CD-1 mice
[6] = CD-1, mouse, plasma, po, 50 mg/kg, 50 mg/kg p.o., Saline, CD-1 mice
[7] = CD-1, mouse, plasma, po, 100 mg/kg, 100 mg/kg p.o., Saline, CD-1 mice
[8] = nude, mouse, plasma, ip, 150 mg/kg, 150 mg/kg i.p., Saline, nude mice with H460 tumor
[9] = nude, mouse, tumor, ip, 150 mg/kg, 150 mg/kg i.p., Saline, nude mice with H460 tumor, Tumor PK

Question: For `Cn1c(COP(=O)(NCCCl)NCCCl)cnc1[N+](=O)[O-]` [Compound 36], which IC90 (human H460 cells; NCI-H460, read-out: Hypoxia C (clonogenic IC90)) is on record?
Answer: The IC90 was 200 nM.

Question: What about the IC90 (human H460 cells; NCI-H460, read-out: Normoxia C (clonogenic IC90)) of the same compound?
Answer: Its IC90 is > 100000 nM.

Question: And the “HCR C” value (human H460 cells; ratio of IC90 in normoxia and hypoxia)?
Answer: The value was >500.

Question: For `Cn1c(COP(=O)(NCCBr)NCCBr)cnc1[N+](=O)[O-]` [Compound 25], which AUC [1, 2] is on record?
Answer: The AUC was 177 µg·h/mL.

Question: And the half-life [1, 2]?
Answer: Its half-life is 10.1 min.

Question: What about the Cmax [1, 3] of the same compound?
Answer: The Cmax was 6330 ng/mL.

Question: What about the Tmax [1, 3] of the same compound?
Answer: Its Tmax is 45 min.

Question: What about the AUC ([1]; CD-1, mouse, plasma, ip, 25 mg/kg, 25 mg/kg i.p., 10% PEG, CD-1 mice, read-out: AUC) of the same compound?
Answer: Its AUC is 247 µg·h/mL.

Question: What about the half-life ([1]; CD-1, mouse, plasma, ip, 25 mg/kg, 25 mg/kg i.p., 10% PEG, CD-1 mice, read-out: Half-life) of the same compound?
Answer: The half-life was 4.43 min.

Question: What about the AUC ([1]; CD-1, mouse, plasma, ip, 50 mg/kg, 50 mg/kg i.p., 30% PEG/70% Saline, CD-1 mice, read-out: AUC) of the same compound?
Answer: Its AUC is 438 µg·h/mL.

Question: And the half-life ([1]; CD-1, mouse, plasma, ip, 50 mg/kg, 50 mg/kg i.p., 30% PEG/70% Saline, CD-1 mice, read-out: Half-life)?
Answer: The half-life was 11 min.

Question: And the Cmax [1, 4]?
Answer: Its Cmax is 38500 ng/mL.

Question: And the Tmax [1, 4]?
Answer: Its Tmax is 5 min.

Question: And the AUC ([1]; CD-1, mouse, plasma, ip, 50 mg/kg, 50 mg/kg i.p., Saline, CD-1 mice, read-out: AUC)?
Answer: Its AUC is 635 µg·h/mL.

Question: And the half-life ([1]; CD-1, mouse, plasma, ip, 50 mg/kg, 50 mg/kg i.p., Saline, CD-1 mice, read-out: Half-life)?
Answer: Its half-life is 7.91 min.

Question: And the Cmax [1, 5]?
Answer: Its Cmax is 27500 ng/mL.

Question: And the Tmax [1, 5]?
Answer: The Tmax was 2 min.

Question: What about the AUC ([1]; CD-1, mouse, plasma, iv, 50 mg/kg, 50 mg/kg i.v., 30% PEG/70% Saline, CD-1 mice, read-out: AUC) of the same compound?
Answer: Its AUC is 325 µg·h/mL.

Question: And the half-life ([1]; CD-1, mouse, plasma, iv, 50 mg/kg, 50 mg/kg i.v., 30% PEG/70% Saline, CD-1 mice, read-out: Half-life)?
Answer: Its half-life is 6.7 min.

Question: What about the Cmax [1, 6] of the same compound?
Answer: Its Cmax is 930 ng/mL.

Question: What about the Tmax [1, 6] of the same compound?
Answer: The Tmax was 15 min.

Question: What about the AUC ([1]; CD-1, mouse, plasma, po, 50 mg/kg, 50 mg/kg p.o., Saline, CD-1 mice, read-out: AUC) of the same compound?
Answer: Its AUC is 40.4 µg·h/mL.

Question: What about the half-life ([1]; CD-1, mouse, plasma, po, 50 mg/kg, 50 mg/kg p.o., Saline, CD-1 mice, read-out: Half-life) of the same compound?
Answer: The half-life was 25.7 min.

Question: What about the Cmax [1, 7] of the same compound?
Answer: The Cmax was 15800 ng/mL.

Question: And the Tmax [1, 7]?
Answer: Its Tmax is 15 min.

Question: And the AUC ([1]; CD-1, mouse, plasma, po, 100 mg/kg, 100 mg/kg p.o., Saline, CD-1 mice, read-out: AUC)?
Answer: The AUC was 784 µg·h/mL.

Question: And the half-life ([1]; CD-1, mouse, plasma, po, 100 mg/kg, 100 mg/kg p.o., Saline, CD-1 mice, read-out: Half-life)?
Answer: The half-life was 95.2 min.

Question: And the bioavailability ([1]; mouse, plasma, po, 50 mg/kg p.o., Saline, CD-1 mice, read-out: F (Bioavailability))?
Answer: Its bioavailability is 13.6%.

Question: What about the Cmax [1, 8] of the same compound?
Answer: Its Cmax is 90100 ng/mL.

Question: And the Tmax [1, 8]?
Answer: Its Tmax is 5 min.

Question: And the AUC ([1]; nude, mouse, plasma, ip, 150 mg/kg, 150 mg/kg i.p., Saline, nude mice with H460 tumor, plasma, read-out: AUC)?
Answer: Its AUC is 1240 µg·h/mL.

Question: What about the half-life ([1]; nude, mouse, plasma, ip, 150 mg/kg, 150 mg/kg i.p., Saline, nude mice with H460 tumor, plasma, read-out: Half-life) of the same compound?
Answer: The half-life was 58.7 min.

Question: And the Cmax [1, 9]?
Answer: Its Cmax is 3380 ng/mL.

Question: What about the Tmax [1, 9] of the same compound?
Answer: Its Tmax is 15 min.

Question: What about the AUC ([1]; nude, mouse, tumor, ip, 150 mg/kg, 150 mg/kg i.p., Saline, nude mice with H460 tumor, Tumor PK, read-out: AUC) of the same compound?
Answer: Its AUC is 307 µg·h/mL.

Question: And the IC90 (UV41; read-out: IC90 UV41 Air)?
Answer: The IC90 was 17000 nM.

Question: And the IC90 (UV41; read-out: IC90 UV41 N2)?
Answer: The IC90 was 20 nM.
